Like-named read-outs stand apart in the source and are kept apart here.
Columns and labels:
mMGL = target: T1, mMGL (Mus musculus, UniProt O35678); assay: mMGL off-target inhibition; type: biochemical; details: read-out: mMGL off-target inhibition [% inhibition at 100 μM]
T1 construct: made in house; host or cells: E. coli (lysate)
T1 sequence (O35678 1-303): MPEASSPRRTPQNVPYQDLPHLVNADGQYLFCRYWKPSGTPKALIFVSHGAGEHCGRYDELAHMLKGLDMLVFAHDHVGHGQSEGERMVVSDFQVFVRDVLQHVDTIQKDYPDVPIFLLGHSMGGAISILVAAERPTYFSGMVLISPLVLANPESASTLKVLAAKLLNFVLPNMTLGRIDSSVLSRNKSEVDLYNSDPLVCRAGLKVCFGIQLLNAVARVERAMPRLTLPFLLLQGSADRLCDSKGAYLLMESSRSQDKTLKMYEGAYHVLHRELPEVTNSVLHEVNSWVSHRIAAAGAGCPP
Experimental: Lysates from E. coli expressing mMGL were treated with 100 μM Inhibitors and incubated with 1 mM rac-OG substrate for 10 min. Enzyme activity was measured using the Free Glycerol Reagent. Samples measured in triplicates.

hHSL = target: T2, hHSL (Homo sapiens, UniProt Q05469); assay: hHSL off-target inhibition; type: biochemical; details: read-out: hHSL off-target inhibition [% inhibition at 100 μM]
T2 construct: made in house; host or cells: Expi cells (lysate)
T2 sequence (Q05469 1-1076): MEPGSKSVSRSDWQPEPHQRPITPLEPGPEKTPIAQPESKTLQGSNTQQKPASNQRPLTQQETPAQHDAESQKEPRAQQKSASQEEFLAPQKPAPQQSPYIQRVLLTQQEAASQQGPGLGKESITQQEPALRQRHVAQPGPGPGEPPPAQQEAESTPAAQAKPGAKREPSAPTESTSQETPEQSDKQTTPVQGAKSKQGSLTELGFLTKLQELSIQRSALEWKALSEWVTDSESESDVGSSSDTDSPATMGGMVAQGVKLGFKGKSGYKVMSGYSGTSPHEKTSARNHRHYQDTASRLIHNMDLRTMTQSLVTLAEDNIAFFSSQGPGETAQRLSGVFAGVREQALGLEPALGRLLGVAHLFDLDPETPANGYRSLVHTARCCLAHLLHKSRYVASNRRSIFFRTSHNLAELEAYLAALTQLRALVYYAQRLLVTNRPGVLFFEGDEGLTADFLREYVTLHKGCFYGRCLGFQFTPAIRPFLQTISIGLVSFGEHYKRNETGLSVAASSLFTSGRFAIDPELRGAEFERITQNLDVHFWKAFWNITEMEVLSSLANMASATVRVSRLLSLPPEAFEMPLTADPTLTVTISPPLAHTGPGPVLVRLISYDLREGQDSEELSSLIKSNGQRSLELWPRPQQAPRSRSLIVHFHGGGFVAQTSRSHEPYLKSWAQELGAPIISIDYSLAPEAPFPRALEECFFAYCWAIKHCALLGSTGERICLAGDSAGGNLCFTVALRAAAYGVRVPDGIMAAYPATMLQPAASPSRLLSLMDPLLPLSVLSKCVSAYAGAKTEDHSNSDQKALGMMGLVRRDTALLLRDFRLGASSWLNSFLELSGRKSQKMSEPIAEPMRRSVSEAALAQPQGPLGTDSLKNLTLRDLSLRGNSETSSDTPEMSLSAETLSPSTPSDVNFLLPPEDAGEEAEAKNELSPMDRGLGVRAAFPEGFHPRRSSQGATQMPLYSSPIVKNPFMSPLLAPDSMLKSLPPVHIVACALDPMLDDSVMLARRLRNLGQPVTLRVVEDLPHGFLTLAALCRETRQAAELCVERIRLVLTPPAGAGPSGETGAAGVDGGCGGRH
Experimental: Expi lysates expressing hHSL were preincubated with 100 μM Inhibitors for 30 min and incubated with 1 mM pNV substrate for 30 min. Samples measured in triplicates.

murine ATGL = target: T3, murine ATGL (Mus musculus, UniProt Q8BJ56); assay: TG hydrolase activity, Expi lysates expressing mouse ATGL + CGI-58, radiolabelled triolein; type: biochemical
T3 construct: made in house; host or cells: Expi cells (lysate)
T3 sequence (Q8BJ56 1-486): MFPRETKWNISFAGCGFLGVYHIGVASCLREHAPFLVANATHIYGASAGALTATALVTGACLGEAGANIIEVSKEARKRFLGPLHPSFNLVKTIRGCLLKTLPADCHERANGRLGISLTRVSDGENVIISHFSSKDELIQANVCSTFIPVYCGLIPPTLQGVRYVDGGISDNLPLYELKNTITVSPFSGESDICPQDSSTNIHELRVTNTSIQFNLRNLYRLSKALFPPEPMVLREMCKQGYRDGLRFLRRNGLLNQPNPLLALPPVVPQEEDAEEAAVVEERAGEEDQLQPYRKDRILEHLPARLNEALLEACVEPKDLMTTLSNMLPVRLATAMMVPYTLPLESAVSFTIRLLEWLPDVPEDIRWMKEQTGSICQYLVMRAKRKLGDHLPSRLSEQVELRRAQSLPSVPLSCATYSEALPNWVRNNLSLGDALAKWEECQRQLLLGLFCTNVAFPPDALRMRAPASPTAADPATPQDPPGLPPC
Procedure, shortened: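 Lysates of Expi cells overexpressing mouse ATGL, with added recombinant CGI-58, were incubated with inhibitor at 50 μM. Substrate was emulsified radiolabelled triolein with PC/PI in 100 mM potassium phosphate pH 7.0 and 5% FA-free BSA, 1 h at 37° C. Released FA were extracted and counted by scintillation; triplicates, DMSO control.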

Stability in human serum = type: in vitro ADME; details: 37° C., HPLC MS
Experimental: Inhibitors were incubated in human serum for 0 or 3 h at 37° C. and subsequently extracted with the MTBE method and analyzed via HPLC MS. Samples measured in triplicates.

[1] = 50 μM, Example 238, read-out: % Inhibition of murine ATGL at 50 μM
[2] = 50 μM compound, Example 237, read-out: Inhibition of murine ATGL at 50 μM − mean [%]
[3] = 50 μM, overview table, read-out: mouse ATGL inhibition [% inhibition at 50 μM]

SMILES	inhibition at 100 µM (mMGL)	inhibition at 100 µM (hHSL)	inhibition at 50 µM (murine ATGL; [1])	Stability in human serum [% rest after 3 h incubation] (Stability in human serum)	inhibition at 50 µM (murine ATGL; [2])	inhibition at 25 µM (murine ATGL; Example 238)	inhibition at 50 µM (murine ATGL; [3])
CCOc1ccc(-c2nc(C(=O)OCc3ccc(Cl)s3)cs2)cc1 [Example 223, (5-Chlorothiophen-2-yl)methyl 2-(4-ethoxyphenyl)thiazole-4-carboxylate]	0%	40%	71%	80%	–	–	–
CCOc1ccc(-c2nc(C(=O)OCc3cccs3)cs2)cc1 [Example 152, Thiophen-2-ylmethyl 2-(4-ethoxyphenyl)thiazole-4-carboxylate]	–	25%	–	80%	74%	–	–
CC#CCOC(=O)c1csc(-c2ccc(OCC)cc2)n1 [Example 209, But-2-yn-1-yl 2-(4-ethoxyphenyl)thiazole-4-carboxylate]	0%	40%	76%	75%	–	–	–
CCOc1ccc(-c2nc(C(=O)OCc3ccc(Br)s3)cs2)cc1 [Example 224, (5-Bromothiophen-2-yl)methyl 2-(4-ethoxyphenyl)thiazole-4-carboxylate]	70%	95%	68%	–	–	–	–
C#C[C@@H](C)OC(=O)c1csc(-c2ccc(OCC)cc2)n1 [Example 211, (R)-But-3-yn-2-yl 2-(4-ethoxyphenyl)thiazole-4-carboxylate]	0%	40%	82%	90%	–	73%	60%
CCOc1ccc(-c2nc(C(=O)OCc3ccoc3)cs2)cc1 [Example 216, Furan-3-ylmethyl 2-(4-ethoxyphenyl)thiazole-4-carboxylate]	0%	30%	81%	60%	–	70%	–
CCCCOC(=O)c1csc(-c2ccc(OCC)cc2)n1 [Example 212, Butyl 2-(4-ethoxyphenyl)thiazole-4-carboxylate]	0%	0%	56%	50%	–	47%	–
CCOc1ccc(-c2cccc(C(=O)OCc3ccco3)n2)cc1 [Example 190, Furan-2-ylmethyl 6-(4-ethoxyphenyl)picolinate]	0%	0%	80%	0%	–	–	–
CCOc1ccc(-c2cccc(C(=O)OCc3cccs3)n2)cc1 [Example 189, Thiophen-2-ylmethyl 6-(4-ethoxyphenyl)picolinate]	0%	0%	87%	25%	–	–	–
CCOc1ccc(-c2cc(OC)cc(C(=O)OC(C)C)n2)cc1 [Example 35]	0%	0%	–	75%	0%	–	–
C#C[C@H](C)OC(=O)c1csc(-c2ccc(OCC)cc2)n1 [Example 210, (S)-But-3-yn-2-yl 2-(4-ethoxyphenyl)thiazole-4-carboxylate]	0%	0%	60%	100%	–	47%	–
COc1cc(C(=O)OC(C)C)nc(-c2ccc(OC(C)C)cc2)c1 [Example 201, Isopropyl 6-(4-isopropoxyphenyl)-4-methoxypicolinate]	0%	0%	45%	100%	–	–	0%
CCOc1ccc(-c2nc(C(=O)OCc3ccsc3)cs2)cc1 [Example 215, Thiophen-3-ylmethyl 2-(4-ethoxyphenyl)thiazole-4-carboxylate]	0%	30%	81%	80%	–	71%	60%
